Measured values taken from patent US11931343B2 (ARCUS BIOSCIENCES, INC., priority 2018, dated 2024).

Target: T1, human CD73 (Homo sapiens, UniProt P21589)
T1 sequence (P21589 27-549): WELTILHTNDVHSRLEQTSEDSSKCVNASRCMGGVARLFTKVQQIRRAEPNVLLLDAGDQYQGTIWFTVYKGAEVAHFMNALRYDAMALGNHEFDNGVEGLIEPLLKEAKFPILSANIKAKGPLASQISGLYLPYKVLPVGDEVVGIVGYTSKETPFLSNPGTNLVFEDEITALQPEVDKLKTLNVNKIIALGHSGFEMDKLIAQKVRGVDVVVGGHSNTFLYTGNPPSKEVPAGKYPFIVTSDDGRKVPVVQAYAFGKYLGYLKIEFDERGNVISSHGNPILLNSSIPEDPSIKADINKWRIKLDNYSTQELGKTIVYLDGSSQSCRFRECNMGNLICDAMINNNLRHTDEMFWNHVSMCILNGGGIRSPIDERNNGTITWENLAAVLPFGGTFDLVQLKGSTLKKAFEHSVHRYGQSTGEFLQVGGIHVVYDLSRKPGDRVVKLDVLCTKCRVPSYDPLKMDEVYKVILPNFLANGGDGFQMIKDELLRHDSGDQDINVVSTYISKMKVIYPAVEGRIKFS
Test: Inhibition of Ecto-5′-nucleotidase (CD73) activity in CHO-CD73 cells, phosphate release from AMP
Format: cell-based
Details: CHO-K1 cells stably transfected with human CD73; 25 μM AMP; 50 minutes, 37° C.; read-out: Potency: CD73 IC50

Row | SMILES | IC50 [nM]
1 | Cc1ccc(Cn2nccc2-c2cc(Cl)c3nnn(-c4ccc5[nH]c(=O)[nH]c5c4)c3c2)cc1F [Example 207] | 100 to 1000
2 | Cc1cc(F)ccc1Cn1nccc1-c1cc(Cl)c2nnn(-c3ccc4[nH]c(=O)[nH]c4c3)c2c1 [Example 208] | 100 to 1000
3 | O=c1[nH]c2ccc(-n3nnc4c(F)cc(-c5ccnn5Cc5ncccn5)cc43)cc2[nH]1 [Example 209] | > 1000
4 | CS(=O)(=O)c1cc(Cl)ccc1Cn1nccc1-c1cc(F)c2nnn(-c3ccc4[nH]c(=O)[nH]c4c3)c2c1 [Example 210] | 100 to 1000
5 | N#Cc1ccccc1Cn1nccc1-c1cc(F)c2nnn(-c3ccc4[nH]c(=O)[nH]c4c3)c2c1 [Example 214] | > 1000
6 | O=c1[nH]c2ccc(-n3nnc4c(F)cc(-c5ccnn5CCc5cccc(Cl)c5)cc43)cc2[nH]1 [Example 215] | > 1000
7 | Cc1cccc(-n2nccc2-c2cc(F)c3nnn(-c4ccc5[nH]c(=O)[nH]c5c4)c3c2)c1 [Example 216] | > 1000
8 | Cc1cccc(-n2nccc2-c2cc(Cl)c3nnn(-c4ccc5[nH]c(=O)[nH]c5c4)c3c2)c1 [Example 217] | 100 to 1000
9 | COCc1ccc(Cn2nccc2-c2cc(F)c3nnn(-c4ccc5[nH]c(=O)[nH]c5c4)c3c2)cc1 [Example 220] | > 1000
10 | O=c1[nH]c2ccc(-n3nnc4c(F)cc(-c5ccnn5CCc5ccccc5Cl)cc43)cc2[nH]1 [Example 221] | > 1000
11 | O=c1[nH]c2ccc(-n3nnc4c(F)cc(-c5ccnn5-c5cc(Cl)cc(Cl)c5)cc43)cc2[nH]1 [Example 227] | 100 to 1000
12 | O=c1[nH]c2ccc(-n3nnc4c(F)cc(-c5ccnn5Cc5cccc6c5OC(F)(F)O6)cc43)cc2[nH]1 [Example 229] | > 1000
13 | O=c1[nH]c2ccc(-n3nnc4c(Cl)cc(-c5ccnn5Cc5ccncc5Cl)cc43)cc2[nH]1 [Example 230] | 100 to 1000
14 | O=c1[nH]c2ccc(-n3nnc4c(F)cc(-c5ccnn5Cc5ccc(Cl)cc5)cc43)cc2[nH]1 [Example 231] | 100 to 1000

Next, values leading:

Row | IC50 [nM] | SMILES
15 | 100 to 1000 | O=c1[nH]c2ccc(-n3nnc4ccc(-c5ccnn5Cc5ccc(F)cn5)cc43)cc2[nH]1 [Example 203]
16 | 100 to 1000 | N#Cc1ccc(Cn2nccc2-c2ccc3nnn(-c4ccc5[nH]c(=O)[nH]c5c4)c3c2)nc1 [Example 204]
17 | > 1000 | O=c1[nH]c2ccc(-n3nnc4c(F)cc(-c5ccnn5CCc5ccc(Cl)cc5)cc43)cc2[nH]1 [Example 205]
18 | > 1000 | O=c1[nH]c2ccc(-n3nnc4c(F)cc(-c5ccnn5Cc5cccnn5)cc43)cc2[nH]1 [Example 206]
19 | 100 to 1000 | N#Cc1ccc(Cn2nccc2-c2cc(F)c3nnn(-c4ccc5[nH]c(=O)[nH]c5c4)c3c2)c(C#N)c1 [Example 211]
20 | > 1000 | O=c1[nH]c2ccc(-n3nnc4c(F)cc(-c5ccnn5Cc5ccncn5)cc43)cc2[nH]1 [Example 212]
21 | > 1000 | O=c1[nH]c2ccc(-n3nnc4c(Cl)cc(-c5ccnn5-c5cccc6cccnc56)cc43)cc2[nH]1 [Example 213]
22 | 100 to 1000 | N#Cc1ccc(Cn2nccc2-c2cnc3c(N)nn(-c4ccc5cn[nH]c5c4)c3c2)cc1 [Example 218]
23 | 100 to 1000 | N#Cc1ccc(Cn2nccc2-c2cnc3c(N)nn(-c4ccc5[nH]c(=O)[nH]c5c4)c3c2)cc1 [Example 219]
24 | 100 to 1000 | O=c1[nH]c2ccc(-n3nnc4c(Cl)cc(-c5ccnn5-c5cccc(C(F)(F)F)c5)cc43)cc2[nH]1 [Example 222]
25 | 100 to 1000 | O=c1[nH]c2ccc(-n3nnc4c(F)cc(-c5ccnn5Cc5ccc6[nH]ncc6c5)cc43)cc2[nH]1 [Example 223]
26 | < 100 | Cc1ccc(Cn2nccc2-c2cc(Cl)c3nnn(-c4ccc5[nH]c(=O)[nH]c5c4)c3c2)c(F)c1 [Example 224]
27 | 100 to 1000 | Cc1cc(Cl)cnc1Cn1nccc1-c1cc(Cl)c2nnn(-c3ccc4[nH]c(=O)[nH]c4c3)c2c1 [Example 225]
28 | 100 to 1000 | Cc1cc(C)cc(-n2nccc2-c2cc(F)c3nnn(-c4ccc5[nH]c(=O)[nH]c5c4)c3c2)c1 [Example 226]
29 | < 100 | N#Cc1ccc(Cn2nccc2-c2cc(Cl)c3nnn(-c4ccc5[nH]c(=O)[nH]c5c4)c3c2)c(F)c1 [Example 228]
